Test results from patent US4532343A, “Aromatic retinoic acid analogues” (SRI International, priority 1982, dated 1985).

How the values were obtained:
[1] = test system: Hamster Tracheal Organ Culture (keratinization); experiment: tracheal organ culture assay (reversal of keratinization in hamster tracheal organ culture); assay type: cell-based; conditions: for Reversal of Keratinization in Hamster Tracheal Organ Culture, Active/Total Cultures: active = neither keratin nor keratohyaline granules seen, or keratohyaline granules alone absent; for Reversal of Keratinization in Hamster Tracheal Organ Culture, Active/Total Cultures (%): percent of active cultures
Method: (§1) The ODC assay measures a compound's ability to prevent the induction of ODC. The tracheal organ culture assay measures a compound's ability to reverse keratinization.
The tracheal organ culture assay is carried out as follows. Tracheas are taken from hamsters that are in very early stages of vitamin A deficiency and placed in organ culture. At the time of culture, the animals are still gaining weight; the tracheal epithelium is generally low columnar or cuboidal, with only occasional patches of squamous metaplasia. Each trachea is opened from the larynx to the carina along the membranous dorsal wall and cultured in a serum-free medium (CMRL-1066; with crystalline bovine insulin, 0.1 μg/ml; hydrocortisone hemisuccinate, 0.1 μg/ml; glutamine, 2 mM; penicillin, 100 units/ml; and streptomycin,100 μg/ml, added). Cultures are gassed with 50% oxygen, 45% nitrogen, and 5% CO2. The culture dishes are rocked at 35.5-36.0 degrees to allow the tracheas contact with both gas and medium. All tracheas are grown in medium containing no retinoid for the first 3 days. At the end of 3 days, some tracheas are harvested; almost all of these tracheas have significant squamous metaplasia, and approximately 60% have keratinized lesions. The remaining tracheas are then divided into different groups which are treated with either: (1) retinoid dissolved in dimethylsulfoxide (final concentration of DMSO in culture medium is never greater than 0.1%) or (2) an equivalent amount of DMSO alone. Culture medium is changed three times a week, and all of the remaining tracheas are harvested at the end of 10 days in culture. Tracheas are fixed in 10% buffered formalin and embedded in paraffin. Cross sections of five micrometers are made through the mid-portion, stained with hematoxylin and eosin, and then scored with a microscope for the presence of keratin and keratohyaline granules, both of which are found in approximately 90% of control cultures that received no retinoid for the entire 10 day culture period.

[2] = test system: Ornithine Decarboxylase; experiment: ornithine decarboxylase (ODC) assay: inhibition of induction of ODC by 12-O-tetradecanoylphorbol-13-acetate in mouse skin; assay type: in vivo, mouse (female Charles River CD-1); conditions: topical, 1 hour before TPA (17 nmol)
Method: as §1
The ODC assay is carried out as follows. Female Charles River CD-1 mice from Charles River Breeding Laboratories, Wilmington, Massachusetts, are used (age 7 to 9 weeks). The dorsal hair of the mice is shaved 1 to 2 days before testing, and only mice showing no hair regrowth are used. A single dose of 12-O-tetradecanoylphorbol-13-acetate (TPA) (10.5 μg, 17 nmol) in 0.2 mL of acetone is applied topically to the back of each mouse. The test compound, at one of three dose levels (1.7, 17 and 170 nmol), dissolved in 0.2 mL of acetone is applied 1 hour before the TPA treatment to the test groups; the control group is treated with acetone alone. The mice are killed by cervical dislocation five hours after TPA treatment. Determinations are done in triplicate.
The epidermis is obtained from the sacrificed animals. To obtain sufficient material, the dorsal skins from 2 to 3 mice in each treatment group are pooled. The depilatory agent Nudit® (Helena Rubinstein, New York) is applied to the shaved area of the skin; after 5 minutes, it is washed off thoroughly with cold tap water. Then the skin is excised and plunged immediately into ice-cold water; it is then placed in a 55° C. water bath for 30 seconds and reimmersed in ice-cold water for at least another 30 seconds. The skin is placed epidermis side up on a cold plate, and the epidermis is scraped off with a razor blade. The pooled epidermal sheets are homogenized (Polytron PT-10 homogenizer) at 0° to 4° C. for 15-20 seconds in 50 mM sodium phosphate and 0.1 mM ethylenediaminetetraacetic acid (EDTA), at a volume of 1 mL/skin.
The supernatant fraction remaining after centrifugation of the homogenate at 10,000× g for 30 seconds at 0° C. is used for the enzyme assay. Enzyme activity is determined using the microassay for ODC as described by Verma and Boutwell to measure the release of ^14 CO2 from DL-[1-^14 C]-ornithine (58 mCi/mmol) after incubation with the 10,000× g supernatant. The incubations are carried out by decanting, with a Pasteur pipette, 100 μL of the supernatant containing 100 to 120 μg of protein into two or three 15-mL Corex tubes in a shaking water bath at 37° C. The assay mixture in the tubes consists of 50 μL of 100 mM sodium phosphate buffer (pH 7.2), 10 μL of 4 mM pyridoxal phosphate, 40 μL of 25 mM dithiothreitol, and 1 μL of 0.1 M EDTA. The center wells in the tubes are filled with 200 μL of a 2:1 solution (v/v) of ethanolamine:2-methoxyethanol. The reaction is started by adding 50 μL of substrate (0.5 μCi of DL-[1-^14 C]-ornithine in 2 mM cold ornithine) at 1-minute intervals by injection to each of the stoppered tubes. Incubations are routinely carried out at 37° C. for 30 to 60 minutes. The reaction is stopped by addition of 0.5 ml of 2 M citric acid, and incubation is continued for an additional hour without heating to ensure complete absorption of ^14 CO2.
Radioactivity is measured using a toluene-based scintillant (4 g of PPO and 50 mg of POPOP/L of toluene) in a Beckman LS-250 liquid scintillation counter. Enzyme activity is determined in triplicate and expressed as nanomoles of CO2 released in 30 minutes per milligram of protein. Enzyme activity is linear for the protein concentration used. The protein concentrations of the epidermal extracts are determined by the Lowry procedure, using bovine serum albumin as the standard.

Structure (SMILES)	Reversal of Keratinization in Hamster Tracheal Organ Culture, Active/Total Cultures ([1]; Conc 10^-8 M)	Reversal of Keratinization in Hamster Tracheal Organ Culture, Active/Total Cultures (%) ([1]; Conc 10^-8 M)	Reversal of Keratinization in Hamster Tracheal Organ Culture, Active/Total Cultures ([1]; Conc 10^-9 M)	Reversal of Keratinization in Hamster Tracheal Organ Culture, Active/Total Cultures (%) ([1]; Conc 10^-9 M)	Reversal of Keratinization in Hamster Tracheal Organ Culture, Active/Total Cultures ([1]; Conc 10^-10 M)	Reversal of Keratinization in Hamster Tracheal Organ Culture, Active/Total Cultures (%) ([1]; Conc 10^-10 M)	Inhibition of Induction of Ornithine Decarboxylase by 12-O-Tetradecanoylphorbol-13-acetate in Mouse Skin, % Inhibition of Control ([2]; Dose 1.7 nmol) [%]	Inhibition of Induction of Ornithine Decarboxylase by 12-O-Tetradecanoylphorbol-13-acetate in Mouse Skin, % Inhibition of Control ([2]; Dose 17 nmol) [%]
CCOC(=O)c1ccc(/C(F)=C(C)/C=C/C2=C(C)CCCC2(C)C)cc1 [Example 1, (1Z,3E)-1-(4-carbethoxyphenyl)-1-fluoro-2-methyl-4-(2,6,6-trimethyl-1-cyclohexen-1-yl)-1,3-butadiene]	11/12	92	10/12	83	6/13	46	56	82
CC1=C(/C=C/C(C)=C(\F)c2ccc(C(=O)O)cc2)C(C)(C)CCC1 [Example 2, (1Z,3E)-1-(4-Carboxyphenyl)-1-fluoro-2-methyl-4-(2,6,6-trimethyl-1-cyclohexen-1-yl)-1,3-butadiene]	13/13	100	12/13	92	5/13	38	70	80
CCOC(=O)c1ccc(/C=C(C)/C=C/C2=C(C)CCCC2(C)C)c(OC)c1 [Example 3, (E)-1-(4-carbethoxy-2-methoxyphenyl)-2-methyl-4-(2,6,6-trimethyl-1-cyclohexen-1-yl)-1,3-butadiene]	7/7	100	5/7	71	4/7	57	21	39
CCOC(=O)c1ccc(/C=C(C)/C=C/C2=C(C)CCCC2(C)C)c(F)c1 [Example 5, (E)-1-(4-Carbethoxy-2-fluorophenyl)-2-methyl-4-(2,6,6-trimethyl-1-cyclohexen-1-yl)-1,3-butadiene]	6/6	100	6/7	86	4/7	56	8	46
CC1=C(/C=C/C(C)=C/c2ccc(C(=O)O)cc2F)C(C)(C)CCC1 [Example 6, (E)-1-(4-Carboxy-2-fluorophenyl)-2-methyl-4-(2,6,6-trimethyl-1-cyclohexen-1-yl)-1,3-butadiene]	6/6	100	12/12	100	3/11	27	37	78
